Experiment: Study HDP-CDV-201: safety and tolerability (adverse events, laboratory abnormalities, discontinuations)
Assay type: in vivo, human (adult allogeneic HSCT recipients)
Procedure: Clinical Studies of HDP-CDV were performed and described in detail in the following Examples. For example, HDP-CDV-201 is a placebo-controlled, dose-escalating trial in HSCT CMV (R+) recipients, evaluating the ability of HDP-CDV to prevent or control CMV infection was carried out. Five cohorts were established in which participants or subjects received either placebo or the HDP-CDV orally, in doses ranging from 40 mg weekly (QW) to 200 mg twice weekly (BIW). Subjects who were post-HSCT were enrolled at the time of engraftment and randomized to HDP-CDV or placebo (3 to 1 ratio) and received blinded therapy until approximately 100 day post-transplantation. HDP-CDV doses were 40 mg QW, 100 mg QW, 200 mg QW, 200 mg BIW and 100 mg BIW. Escalation to the next dose was decided by the data monitoring committee after review of the safety data from the previous Cohort. Subjects who developed CMV disease or CMV infection requiring pre-emptive therapy with local standard of care were discontinued from blinded therapy and followed for 4 weeks. Subjects who completed treatment with blinded therapy were followed for 8 weeks post-therapy.
Data from Study HDP-CDV-201 also provided characterization of the safety and tolerability profile of HDP-CDV when administered for the prevention or control of CMV infection in high risk (R^+) post-HSCT adult subjects.
The Safety population (SAFETY) included all randomized subjects who took at least one dose of study treatment. This population was used to summarize safety outcomes based on the treatment actually received, in cases where a subject was treated contrary to the randomization schedule.
The safety and tolerability profile of HDP-CDV, including subject demographics and Baseline characteristics; the AE profile; and laboratory abnormalities of interest were analyzed in the cohorts followed in this investigation.
Subjects completing the treatment period received a full course of study medication; those completing the entire study attended visits through 8 weeks of follow up. Subjects who discontinued treatment may have done so for protocol specified reasons (e.g. development of clinically significant CMV infection requiring preemptive treatment with excluded anti-CMV medications) or for other reasons (e.g., withdrawal, adverse events, loss to follow-up). The disposition of subjects in Study HDP-CDV-201 during the double-blind, placebo-controlled treatment period (through Week 11) is listed by dosing Cohort in TABLE 23.
Adverse events were examined by severity to ensure that all safety signals were identified in this study population. Because of the frequency of events in HSCT recipients, particular attention was given to evaluation of Grade 3 […], 4 (severe), and 5 (fatal) adverse events.
Only those preferred terms for which at least one Grade 3 or higher event was experienced in any treatment group are listed. Cytomegalovirus-related AEs are excluded from this analysis.
HDP-CDV is a lipid conjugate of CDV. Because CDV is known to have adverse effects on renal function and bone marrow, decreased GFR and persistent neutropenia were identified as AEs of special interest. Key renal and hematological (TABLE 30) laboratory parameters were measured and listed below by Study HDP-CDV-201 treatment groups. TABLE 30 includes abnormal levels of serum creatinine, neutrophils, platelets, WBCs, and hemoglobin and includes data at Screening and during the treatment period.
A common metric for unit based dosing of medications is by weight (mg/kg). When the distribution of weights was examined for all subjects participating in the study, the median was 78 kg and the lower 25th percentile weight was approximately 65 kg, which translates to a cut-off of ˜3 mg/kg for a 200 mg total weekly dose. Based upon this approach, a cut-off of 3 mg/kg was used to assess the frequency of diarrhea and associated GI AEs reported for the subjects in Cohorts 3 or 4a (TABLE 40).

CCCCCCCCCCCCCCCCOCCCOP(=O)(O)COC(CO)Cn1ccc(N)nc1=O (stereo not drawn) [HDP-CDV]
TEAE GGT Increased, Frequency (100 mg QW): 1 (3.7%) | TEAE GGT Increased, Grade 2 (100 mg QW): 1 (3.7%) | TEAE GGT Increased, Grade 3 (100 mg QW): 0 | TEAE GGT Increased, Grade 4 (100 mg QW): 0 | TEAE GGT Increased, Grade 5 (100 mg QW): 0 | TEAE Generalized oedema, Frequency (100 mg QW): 0 | TEAE Generalized oedema, Grade 2 (100 mg QW): 0 | TEAE Generalized oedema, Grade 3 (100 mg QW): 0 | TEAE Generalized oedema, Grade 4 (100 mg QW): 0 | TEAE Generalized oedema, Grade 5 (100 mg QW): 0 | TEAE Hyperbilirubinaemia, Frequency (100 mg QW): 0 | TEAE Hyperbilirubinaemia, Grade 2 (100 mg QW): 0 | TEAE Hyperbilirubinaemia, Grade 3 (100 mg QW): 0 | TEAE Hyperbilirubinaemia, Grade 4 (100 mg QW): 0 | TEAE Hyperbilirubinaemia, Grade 5 (100 mg QW): 0 | TEAE Hyperglycaemia, Frequency (100 mg QW): 1 (3.7%) | TEAE Hyperglycaemia, Grade 2 (100 mg QW): 0 | TEAE Hyperglycaemia, Grade 3 (100 mg QW): 1 (3.7%) | TEAE Hyperglycaemia, Grade 4 (100 mg QW): 0 | TEAE Hyperglycaemia, Grade 5 (100 mg QW): 0 | TEAE Hyperkalemia, Frequency (100 mg QW): 1 (3.7%) | TEAE Hyperkalemia, Grade 2 (100 mg QW): 0 | TEAE Hyperkalemia, Grade 3 (100 mg QW): 1 (3.7%) | TEAE Hyperkalemia, Grade 4 (100 mg QW): 0 | TEAE Hyperkalemia, Grade 5 (100 mg QW): 0 | TEAE Hypocalcaemia, Frequency (100 mg QW): 0 | TEAE Hypocalcaemia, Grade 2 (100 mg QW): 0 | TEAE Hypocalcaemia, Grade 3 (100 mg QW): 0 | TEAE Hypocalcaemia, Grade 4 (100 mg QW): 0 | TEAE Hypocalcaemia, Grade 5 (100 mg QW): 0 | TEAE Hypokalaemia, Frequency (100 mg QW): 2 (7.4%) | TEAE Hypokalaemia, Grade 2 (100 mg QW): 0 | TEAE Hypokalaemia, Grade 3 (100 mg QW): 0 | TEAE Hypokalaemia, Grade 4 (100 mg QW): 0 | TEAE Hypokalaemia, Grade 5 (100 mg QW): 0 | TEAE Hyponatraemia, Frequency (100 mg QW): 1 (3.7%) | TEAE Hyponatraemia, Grade 2 (100 mg QW): 0 | TEAE Hyponatraemia, Grade 3 (100 mg QW): 0 | TEAE Hyponatraemia, Grade 4 (100 mg QW): 0 | TEAE Hyponatraemia, Grade 5 (100 mg QW): 0 | TEAE LFT Abnormal, Frequency (100 mg QW): 1 (3.7%) | TEAE LFT Abnormal, Grade 2 (100 mg QW): 0 | TEAE LFT Abnormal, Grade 3 (100 mg QW): 0 | TEAE LFT Abnormal, Grade 4 (100 mg QW): 0 | TEAE LFT Abnormal, Grade 5 (100 mg QW): 0 | TEAE Leukocytosis, Frequency (100 mg QW): 0 | TEAE Leukocytosis, Grade 2 (100 mg QW): 0 | TEAE Leukocytosis, Grade 3 (100 mg QW): 0 | TEAE Leukocytosis, Grade 4 (100 mg QW): 0 | TEAE Leukocytosis, Grade 5 (100 mg QW): 0 | TEAE Nausea, Frequency (100 mg QW): 5 (18.5%) | TEAE Nausea, Grade 2 (100 mg QW): 1 (3.7%) | TEAE Nausea, Grade 3 (100 mg QW): 0 | TEAE Nausea, Grade 4 (100 mg QW): 0 | TEAE Nausea, Grade 5 (100 mg QW): 0 | TEAE Neutropenia, Frequency (100 mg QW): 4 (14.8%) | TEAE Neutropenia, Grade 2 (100 mg QW): 1 (3.7%) | TEAE Neutropenia, Grade 3 (100 mg QW): 2 (7.4%) | TEAE Neutropenia, Grade 4 (100 mg QW): 1 (3.7%) | TEAE Neutropenia, Grade 5 (100 mg QW): 0 | TEAE Pneumonia, Frequency (100 mg QW): 2 (7.4%) | TEAE Pneumonia, Grade 2 (100 mg QW): 0 | TEAE Pneumonia, Grade 3 (100 mg QW): 1 (3.7%) | TEAE Pneumonia, Grade 4 (100 mg QW): 1 (3.7%) | TEAE Pneumonia, Grade 5 (100 mg QW): 0 | TEAE Pyrexia, Frequency (100 mg QW): 1 (3.7%) | TEAE Pyrexia, Grade 2 (100 mg QW): 0 | TEAE Pyrexia, Grade 3 (100 mg QW): 0 | TEAE Pyrexia, Grade 4 (100 mg QW): 0 | TEAE Pyrexia, Grade 5 (100 mg QW): 0 | TEAE Renal Failure, Frequency (100 mg QW): 2 (7.4%) | TEAE Renal Failure, Grade 2 (100 mg QW): 2 (7.4%) | TEAE Renal Failure, Grade 3 (100 mg QW): 0 | TEAE Renal Failure, Grade 4 (100 mg QW): 0 | TEAE Renal Failure, Grade 5 (100 mg QW): 0 | TEAE Staphylococcal Bacteremia, Frequency (100 mg QW): 1 (3.7%) | TEAE Staphylococcal Bacteremia, Grade 2 (100 mg QW): 0 | TEAE Staphylococcal Bacteremia, Grade 3 (100 mg QW): 1 (3.7%) | TEAE Staphylococcal Bacteremia, Grade 4 (100 mg QW): 0 | TEAE Staphylococcal Bacteremia, Grade 5 (100 mg QW): 0 | TEAE Thrombocytopenia, Frequency (100 mg QW): 3 (11.1%) | TEAE Thrombocytopenia, Grade 2 (100 mg QW): 1 (3.7%) | TEAE Thrombocytopenia, Grade 3 (100 mg QW): 1 (3.7%) | TEAE Thrombocytopenia, Grade 4 (100 mg QW): 1 (3.7%) | TEAE Thrombocytopenia, Grade 5 (100 mg QW): 0 | TEAE Vomiting, Frequency (100 mg QW): 6 (22.2%) | TEAE Vomiting, Grade 2 (100 mg QW): 2 (7.4%) | TEAE Vomiting, Grade 3 (100 mg QW): 0 | TEAE Vomiting, Grade 4 (100 mg QW): 0 | TEAE Vomiting, Grade 5 (100 mg QW): 0 | Subjects Reporting Diarrhea as an AE (100 mg QW, n = 27): 8 (29.6%) | Discontinuation: Death (100 mg QW, active treatment period): 0 Subject n (%) | Discontinuation: Adverse event (100 mg QW, active treatment period through Week 11): 3 (11.1%) Subject n (%) | subjects who discontinued study medications (100 mg weekly): 33% | TEAE ALT increased, Frequency (200 mg BIW): 10 (33.3%) | TEAE ALT increased, Grade 2 (200 mg BIW): 4 (13.3%) | TEAE ALT increased, Grade 3 (200 mg BIW): 2 (6.7%) | TEAE ALT increased, Grade 4 (200 mg BIW): 0 | TEAE ALT increased, Grade 5 (200 mg BIW): 0 | TEAE AML, Recurrent, Frequency (200 mg BIW): 0 | TEAE AML, Recurrent, Grade 2 (200 mg BIW): 0 | TEAE AML, Recurrent, Grade 3 (200 mg BIW): 0 | TEAE AML, Recurrent, Grade 4 (200 mg BIW): 0 | TEAE AML, Recurrent, Grade 5 (200 mg BIW): 0 | TEAE AST increased, Frequency (200 mg BIW): 7 (23.3%) | TEAE AST increased, Grade 2 (200 mg BIW): 3 (10.0%) | TEAE AST increased, Grade 3 (200 mg BIW): 0 | TEAE AST increased, Grade 4 (200 mg BIW): 0 | TEAE AST increased, Grade 5 (200 mg BIW): 0 | TEAE Abdominal pain, Frequency (200 mg BIW): 11 (36.7%) | TEAE Abdominal pain, Grade 2 (200 mg BIW): 8 (26.7%)
